PubChem BioAssay (NCI)
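In this assay, cells in 96-well plates receive the compound at five concentrations for 48 hours. Endpoints are linearly interpolated between the surrounding concentrations. Here, GI50 denotes the concentration required for 50% inhibition of growth. Definition used: TGI = concentration required for complete inhibition of growth.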

Columns and labels:
Assay in all cases: growth of human tumour cells (NCI), 48 h
TK-10 renal = test system: TK-10 renal
HOP-92 NSCLC = test system: HOP-92 NSCLC
OVCAR-8 ovarian = test system: OVCAR-8 ovarian
UACC-62 melanoma = test system: UACC-62 melanoma
RXF 393 renal = test system: RXF 393 renal
IGROV1 ovarian = test system: IGROV1 ovarian
OVCAR-5 ovarian = test system: OVCAR-5 ovarian
HCC-2998 colon = test system: HCC-2998 colon
SW-620 colon = test system: SW-620 colon
LOX IMVI melanoma = test system: LOX IMVI melanoma

Row | Compound | GI50 (TK-10 renal) [µM] | TGI (TK-10 renal) [µM] | GI50 (HOP-92 NSCLC) [µM] | TGI (HOP-92 NSCLC) [µM] | GI50 (OVCAR-8 ovarian) [µM] | TGI (OVCAR-8 ovarian) [µM] | GI50 (UACC-62 melanoma) [µM] | TGI (UACC-62 melanoma) [µM] | GI50 (RXF 393 renal) [µM] | TGI (RXF 393 renal) [µM] | GI50 (IGROV1 ovarian) [µM] | TGI (IGROV1 ovarian) [µM] | GI50 (OVCAR-5 ovarian) [µM] | TGI (OVCAR-5 ovarian) [µM] | GI50 (HCC-2998 colon) [µM] | TGI (HCC-2998 colon) [µM] | TGI (SW-620 colon) [µM] | TGI (LOX IMVI melanoma) [µM] | GI50 (SW-620 colon) [µM] | GI50 (LOX IMVI melanoma) [µM]
1 | COc1cc(/C=C2\C[C@H]3[C@@H]4CC=C5C[C@@H](OC(C)=O)CC[C@]5(C)[C@H]4CC[C@]3(C)[C@H]2OC(C)=O)ccc1OCCN1CCCC1 | 9.07 | 19.7 | 5.45 | 13.4 | 10.3 | 21.4 | 9.48 | 17.5 | 14.6 | 30.8 | 19.3 | > 50 | 10 | 20.1 | 8.01 | 15.4 | – | – | – | –
2 | C=C(CCCO)[C@@H]1CC[C@@](C)(O)[C@H]1C | – | > 100 | – | – | – | > 100 | – | > 100 | – | > 100 | – | > 100 | – | > 100 | – | > 100 | > 100 | – | – | –
3 | O=[N+]([O-])c1cc2c([N+](=O)[O-])cccc2o1 | – | 23.8 | – | 36 | – | 38.8 | – | 27.7 | – | 20 | – | – | – | – | – | 35.7 | 7.99 | > 100 | – | –
4 | COc1ccc(/C=C2\c3cc(OC)c(OC)c(OC)c3CC[C@@H]2O)cc1F | – | – | 25 | > 100 | 0.598 | 93.4 | 0.283 | > 100 | – | – | 0.812 | > 100 | 10.4 | > 100 | 0.809 | 80.2 | > 100 | 48.6 | 0.246 | 0.395
5 | CCOC1CC2OC(=O)C1C=C2C(=O)OC (configuration not stated) | – | 84.1 | – | 73.1 | – | – | – | > 100 | – | – | – | > 100 | – | > 100 | – | > 100 | 61.1 | > 100 | – | –
6 | C[Si](C)(C)C(Sc1ccccc1)(Sc1ccccc1)Sc1ccccc1 | – | > 100 | – | 94.1 | – | > 100 | – | > 100 | – | > 100 | – | – | – | – | – | > 100 | > 100 | > 100 | – | –
7 | CC1C2CC=CC(=O)[C@@]2(C)CCC12OCCO2 (some centres not stated) | – | > 100 | – | > 100 | – | > 100 | – | > 100 | – | > 100 | – | > 100 | – | > 100 | – | > 100 | > 100 | – | – | –
8 | Cc1cc(Cl)cc(Cc2cc(Cl)cc(C)c2O)c1O | 3.97 | 12 | 0.397 | 2.83 | 2.1 | 6.16 | 2.28 | 10.6 | 2.29 | 6.91 | 5.18 | 29.5 | 3.35 | 12.3 | 2.68 | 7.95 | – | 8.9 | – | 3
9 | Cn1cnc([N+](=O)[O-])c1Sc1nccc(=O)[nH]1 | – | > 100 | – | > 100 | – | > 100 | – | > 100 | – | – | – | > 100 | – | > 100 | – | > 100 | > 100 | > 100 | – | –
10 | O=C(O)Cc1cccc2c(=O)c3cccc([N+](=O)[O-])c3oc12 | – | > 100 | – | – | – | > 100 | – | > 100 | – | > 100 | – | > 100 | – | > 100 | – | > 100 | > 100 | > 100 | – | –
11 | COCCn1cc(-c2csc(-c3c[nH]c4ccc(Br)cc34)n2)c2cccnc21 | – | – | 4.39 | 30.7 | 5.35 | > 100 | 4.2 | > 100 | 3.3 | 11.2 | 4.06 | > 100 | 4.83 | > 100 | 3.8 | > 100 | > 100 | > 100 | 3.3 | 2.67
12 | C/C(=N\NC(=O)CC(=O)N(C(=O)c1ccc(Cl)cc1)c1ccc(C)cc1)c1ccccc1O | – | > 100 | – | – | – | > 100 | – | > 100 | – | > 100 | – | > 100 | – | > 100 | – | – | > 100 | – | – | –
13 | CCOC(=O)CNc1nnnn1C1OC(CO)C(O)C1O (configuration not stated) | – | > 100 | – | – | – | > 100 | – | > 100 | – | > 100 | – | > 100 | – | > 100 | – | > 100 | > 100 | > 100 | – | –
14 | CC1CC[P+](c2ccccc2)(c2ccccc2)CC1 | – | > 100 | – | – | – | > 100 | – | > 100 | – | > 100 | – | > 100 | – | > 100 | – | > 100 | > 100 | > 100 | – | –
15 | C=CCN(N=O)C(=O)NCCCCC(NC(C)=O)C(=O)NCc1ccccc1 (configuration not stated) | – | > 100 | – | > 100 | – | > 100 | – | > 100 | – | > 100 | – | > 100 | – | > 100 | – | – | > 100 | > 100 | – | –
16 | COC1=CC(=O)c2nc(Cl)ccc2C1=O | 2.09 | 4.23 | – | – | 1.68 | 3.11 | 1.77 | 3.45 | 1.58 | 2.97 | 1.86 | 3.54 | 2.06 | 4.88 | 11.4 | 23.6 | 3.3 | 2.8 | 1.79 | 1.38
17 | COC(=O)C(=O)C(C(=O)C(=O)Nc1cc(C)ccc1C)c1nc2ccc(C(=O)c3ccccc3)cc2[nH]c1=O (configuration not stated) | – | > 100 | – | 91.8 | – | > 100 | – | > 100 | – | > 100 | – | > 100 | – | > 100 | – | > 100 | > 100 | – | – | –
18 | C/C(=N/Nc1nc(C)cc(=O)[nH]1)C(=O)O | – | > 100 | – | – | – | > 100 | – | > 100 | – | > 100 | – | > 100 | – | > 100 | – | > 100 | > 100 | > 100 | – | –
19 | CCN=C(C#N)NCC | – | > 100 | – | > 100 | – | > 100 | – | > 100 | – | – | – | > 100 | – | > 100 | – | > 100 | 37.5 | > 100 | – | –
20 | COc1ccc(CCc2cc(OC)c(O)c(OC)c2)cc1 | – | – | – | > 100 | – | > 100 | – | > 100 | – | – | – | > 100 | – | > 100 | – | > 100 | > 100 | – | – | –
21 | O=C(O)CCC(C(=O)O)N1C(=O)C2C3CCC(C3)C2C1=O (configuration not stated) | – | > 100 | – | > 100 | – | > 100 | – | > 100 | – | > 100 | – | > 100 | – | > 100 | – | – | > 100 | > 100 | – | –
